# Assay results taken from patent US10414811B2, “Protease-resistant lipidated GLP-1 analogs” (MEDIMMUNE LIMITED, priority 2015, dated 2019).
# Where two headings read alike, the source gives them in different places.
# Assays:
# Assay type in all cases: cell-based
# [1] = biological target: T1, human GLP-1 receptor (GLP-1R) (Homo sapiens, UniProt P43220); test: cAMP assay, human GLP-1R cells
# T1 construct: expressed in transfected cells
# How it was run: (§1)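 Peptide-stimulated cAMP measured by two-step HTRF after a 30 min room-temperature incubation with receptor-expressing cells (hGLP-1R, hGIPR at 1×10^5 cells/ml; hGCGR at 2×10^5 cells/ml). Duplicate dilutions; EC50 from 4-parameter logistic fit of % Delta F.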
# [2] = biological target: T2, human glucagon receptor (GCGR) (Homo sapiens, UniProt P47871); test: cAMP assay, human GCGR cells; settings: cAMP assay
# T2 construct: expressed in transfected cells
# T2 sequence (P47871 26-477): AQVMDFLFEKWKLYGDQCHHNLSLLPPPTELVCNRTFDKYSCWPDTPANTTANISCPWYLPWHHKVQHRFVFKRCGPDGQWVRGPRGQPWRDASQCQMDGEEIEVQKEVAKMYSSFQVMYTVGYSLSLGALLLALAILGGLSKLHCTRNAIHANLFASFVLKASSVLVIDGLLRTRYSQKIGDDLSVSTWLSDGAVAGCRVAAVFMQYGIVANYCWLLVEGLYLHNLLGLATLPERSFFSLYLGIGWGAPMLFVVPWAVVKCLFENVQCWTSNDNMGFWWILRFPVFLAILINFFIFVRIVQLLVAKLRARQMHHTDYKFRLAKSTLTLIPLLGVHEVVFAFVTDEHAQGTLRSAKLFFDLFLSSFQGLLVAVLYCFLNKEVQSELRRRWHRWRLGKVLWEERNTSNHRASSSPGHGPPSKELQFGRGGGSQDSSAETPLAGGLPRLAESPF
# How it was run: as §1
# [3] = biological target: T3, human glucose-dependent insulinotropic peptide receptor (GIPR) (Homo sapiens, UniProt P48546); test: cAMP assay, human GIPR cells; settings: cAMP assay
# T3 construct: expressed in transfected cells
# T3 sequence (P48546 22-466): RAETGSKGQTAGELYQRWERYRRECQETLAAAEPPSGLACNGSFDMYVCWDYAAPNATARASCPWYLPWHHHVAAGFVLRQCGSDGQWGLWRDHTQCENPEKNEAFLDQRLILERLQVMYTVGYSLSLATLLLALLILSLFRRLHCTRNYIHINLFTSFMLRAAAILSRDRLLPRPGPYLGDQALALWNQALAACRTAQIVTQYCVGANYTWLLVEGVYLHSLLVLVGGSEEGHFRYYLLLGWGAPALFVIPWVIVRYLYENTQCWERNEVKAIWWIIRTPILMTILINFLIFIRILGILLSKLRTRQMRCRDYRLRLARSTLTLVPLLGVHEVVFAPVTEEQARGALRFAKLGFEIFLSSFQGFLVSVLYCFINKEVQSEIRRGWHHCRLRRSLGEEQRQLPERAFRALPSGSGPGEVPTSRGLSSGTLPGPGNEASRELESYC
# How it was run: as §1
# [4] = biological target: T4, GLP-1R (INS1e assay) (Rattus norvegicus, UniProt P32301); test: INS1e assay, cAMP activity at GLP-1R; settings: mono-lipidated peptides
# T4 construct: endogenous in cells; host or cells: INS-1E cells
# T4 sequence (P32301 22-463): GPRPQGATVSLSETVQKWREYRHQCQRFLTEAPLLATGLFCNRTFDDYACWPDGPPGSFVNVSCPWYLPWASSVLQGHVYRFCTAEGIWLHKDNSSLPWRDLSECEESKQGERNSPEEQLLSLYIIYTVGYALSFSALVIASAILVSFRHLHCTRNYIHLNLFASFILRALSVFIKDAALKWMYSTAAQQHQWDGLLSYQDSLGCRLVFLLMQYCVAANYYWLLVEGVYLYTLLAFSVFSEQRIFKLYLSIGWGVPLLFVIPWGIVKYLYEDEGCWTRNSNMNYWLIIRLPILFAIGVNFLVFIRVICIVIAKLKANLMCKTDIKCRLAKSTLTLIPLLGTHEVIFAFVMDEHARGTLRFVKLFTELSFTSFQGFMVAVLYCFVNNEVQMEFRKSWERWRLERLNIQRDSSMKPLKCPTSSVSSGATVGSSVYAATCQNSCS
# How it was run: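 cAMP was quantified by two-step HTRF, using anti-cAMP cryptate donor and cAMP-d2 acceptor, each diluted 1/20 in conjugate and lysis buffer. EC50 values of the synthetic peptides were derived from the cAMP readout.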
# [5] = cAMP assay, first determination (n1), read-out: Primary assay EC50 GLP-1R n1
# [6] = cAMP assay, second determination (n2), read-out: Primary assay EC50 GLP-1R n2
# [7] = mean of n1 and n2, read-out: Mean pM GLP-1R
# [8] = first determination (n1), read-out: Primary assay EC50 Gluc-R (n1)
# [9] = second determination (n2), read-out: Primary assay EC50 Gluc-R (n2)
# [10] = first determination (n1), read-out: Primary assay EC50 GIP-R (n1)
# [11] = second determination (n2), read-out: Primary assay EC50 GIP-R (n2)
# [12] = mean of n1 and n2, read-out: INS1e assay EC50 Mean pM GLP-1R
# [13] = replicate n1, read-out: INS1e assay EC50 GLP-1R n1
# [14] = replicate n2, read-out: INS1e assay EC50 GLP-1R n2
# T1 sequence (P43220 24-463): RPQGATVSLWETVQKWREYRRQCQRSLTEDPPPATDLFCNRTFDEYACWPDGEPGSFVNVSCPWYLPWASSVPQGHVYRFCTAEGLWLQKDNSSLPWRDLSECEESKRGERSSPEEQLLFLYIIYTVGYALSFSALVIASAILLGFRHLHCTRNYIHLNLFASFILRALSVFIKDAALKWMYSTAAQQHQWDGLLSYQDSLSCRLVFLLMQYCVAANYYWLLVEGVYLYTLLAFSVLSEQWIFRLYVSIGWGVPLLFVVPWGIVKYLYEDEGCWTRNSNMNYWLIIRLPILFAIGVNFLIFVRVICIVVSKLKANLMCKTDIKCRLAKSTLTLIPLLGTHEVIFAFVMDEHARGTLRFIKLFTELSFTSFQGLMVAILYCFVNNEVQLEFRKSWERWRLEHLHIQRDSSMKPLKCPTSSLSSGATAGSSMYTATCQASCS
"EC50 [1, 5] [pM]","EC50 [1, 6] [pM]","EC50 [1, 7] [pM]","EC50 [2, 8] [pM]","EC50 [2, 9] [pM]","EC50 [3, 10] [pM]","EC50 [3, 11] [pM]","EC50 [4, 12] [pM]","EC50 [4, 13] [pM]","EC50 [4, 14] [pM]",SMILES,"EC50 ([2]; Primary assay EC50 Gluc-R (n1), first determination (n1)) [pM]","EC50 ([2]; read-out: Primary assay EC50 Gluc-R (n2), second determination (n2)) [pM]","EC50 ([3]; Primary assay EC50 GIP-R (n1), first determination (n1)) [pM]","EC50 ([3]; read-out: Primary assay EC50 GIP-R (n2), second determination (n2)) [pM]"
3.4,1.7,2.6,≥ 27000,≥ 27000,≥ 27000,≥ 27000,181,93.1,269,CCCCCCCCCCCC(=O)NCCCCCC(=O)NCCCCCC(=O)NCCCCCC(=O)NCCCC[C@H](NC(=O)[C@@H](NC(=O)[C@@H](NC(=O)[C@](C)(Cc1ccccc1)NC(=O)[C@H](C)NC(=O)[C@@H](NC(=O)[C@](C)(Cc1ccccc1)NC(=O)[C@H](CCC(=O)O)NC(=O)[C@](C)(CCCCN)NC(=O)[C@H](C)NC(=O)[C@H](C)NC(=O)[C@H](CCC(=O)O)NC(=O)CNC(=O)[C@H](CCC(=O)O)NC(=O)[C@H](CC(C)C)NC(=O)[C@](C)(Cc1ccccc1)NC(=O)[C@H](CO)NC(=O)[C@](C)(CO)NC(=O)[C@@H](NC(=O)[C@H](CC(=O)O)NC(=O)[C@H](CO)NC(=O)[C@@H](NC(=O)[C@](C)(Cc1ccccc1)NC(=O)[C@H](CO)NC(=O)CNC(=O)[C@H](CCC(=O)O)NC(=O)C(C)(C)NC(=O)[C@@H](N)Cc1c[nH]cn1)[C@@H](C)O)C(C)C)[C@@H](C)CC)C(C)C)C(C)C)C(=O)NCC(=O)NCC(N)=O [compound 169],,,,
1.6,1.6,1.6,≥ 28000,≥ 28000,≥ 28000,≥ 28000,53,43.6,62.2,CCCCCCCCCCCCCCCC(=O)N[C@@H](CCC(=O)NCCCC[C@H](NC(=O)[C@H](CO)NC(=O)[C@](C)(CO)NC(=O)[C@@H](NC(=O)[C@H](CC(=O)O)NC(=O)[C@H](CO)NC(=O)[C@@H](NC(=O)[C@](C)(Cc1ccccc1)NC(=O)[C@H](CO)NC(=O)CNC(=O)[C@H](CCC(=O)O)NC(=O)C(C)(C)NC(=O)[C@@H](N)Cc1c[nH]cn1)[C@@H](C)O)C(C)C)C(=O)N[C@@H](CC(C)C)C(=O)N[C@@H](CCC(=O)O)C(=O)NCC(=O)N[C@@H](CCC(=O)O)C(=O)N[C@@H](C)C(=O)N[C@@H](C)C(=O)N[C@@](C)(CCCCN)C(=O)N[C@@H](CCC(=O)O)C(=O)N[C@@](C)(Cc1ccccc1)C(=O)N[C@H](C(=O)N[C@@H](C)C(=O)N[C@@](C)(Cc1ccccc1)C(=O)N[C@H](C(=O)N[C@H](C(=O)N[C@@](C)(CCCCN)C(=O)NCC(=O)NCC(N)=O)C(C)C)C(C)C)[C@@H](C)CC)C(=O)O [compound 87],,,,

SMILES,"EC50 [1, 5] [pM]","EC50 [1, 6] [pM]","EC50 [1, 7] [pM]","EC50 [2, 8] [pM]","EC50 [2, 9] [pM]","EC50 [3, 10] [pM]","EC50 [3, 11] [pM]","EC50 [4, 12] [pM]","EC50 [4, 13] [pM]","EC50 [4, 14] [pM]","EC50 ([2]; Primary assay EC50 Gluc-R (n1), first determination (n1)) [pM]","EC50 ([2]; read-out: Primary assay EC50 Gluc-R (n2), second determination (n2)) [pM]","EC50 ([3]; Primary assay EC50 GIP-R (n1), first determination (n1)) [pM]","EC50 ([3]; read-out: Primary assay EC50 GIP-R (n2), second determination (n2)) [pM]"
CC[C@H](C)[C@H](NC(=O)[C@](C)(Cc1ccccc1)NC(=O)[C@H](CCC(=O)O)NC(=O)[C@H](CCCCNC(=O)COCCOCCNC(=O)CCCCCCCCCCCOc1ccc(C(=O)O)cc1)NC(=O)[C@H](C)NC(=O)[C@H](C)NC(=O)[C@H](CCC(=O)O)NC(=O)CNC(=O)[C@H](CCC(=O)O)NC(=O)[C@H](CC(C)C)NC(=O)[C@](C)(Cc1ccccc1)NC(=O)[C@H](CO)NC(=O)[C@](C)(CO)NC(=O)[C@@H](NC(=O)[C@H](CC(=O)O)NC(=O)[C@H](CO)NC(=O)[C@@H](NC(=O)[C@](C)(Cc1ccccc1)NC(=O)[C@H](CO)NC(=O)CNC(=O)[C@H](CCC(=O)O)NC(=O)C(C)(C)NC(=O)[C@@H](N)Cc1c[nH]cn1)[C@@H](C)O)C(C)C)C(=O)N[C@@H](C)C(=O)N[C@@](C)(Cc1ccccc1)C(=O)N[C@H](C(=O)N[C@H](C(=O)N[C@@](C)(CCCCN)C(=O)NCC(=O)NCC(N)=O)C(C)C)C(C)C [compound 143],12,5.2,8.6,,,,,34,45.1,22.7,≥ 27000,≥ 27000,≥ 27000,≥ 27000
